The text below walks through data of patent publication US20060286237A1, “Use of divanillin as a flavouring agent” (priority 2003, published 2006).

Experiment [1] is described as follows: Sensory investigation of the taste impression of divanillin.
For experiment [2] the following is noted: as described in JP 07-179853 A2; cited from earlier work.
Experiment [3] in a line: Taste threshold value determination.

Turning to `COc1cc(C=O)cc(-c2cc(C=O)cc(OC)c2O)c1O` [divanillin, 6,6′-dihydroxy-5,5′-dimethoxy-[1,1′-biphenyl]-3,3′-dicarboxaldehyde], the “taste impression at higher concentration” value in experiment [1] (higher concentration values preferred according to JP 07-179853 A2 (0.001 to 5 wt. %)) is given as “diminishes in favour of a vanilla-like individual taste”. For the same molecule, the taste impression result in experiment [1] (own investigations) is “pleasant, adherent and rich taste impression of creaminess, milk fattiness, butteriness and sweetness”. For the same molecule, the “odour and taste description” value in experiment [2] is “odourless and tasteless”. In addition, the taste threshold value result in experiment [3] is “below 1 ppm”.
